Several values for one entry are separate records, joined by “and”; a condition that tells them apart may be missing. Equal values may be shown once.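 All cell lines were grown in 96-well plates and treated with compound for 48 hours. The concentration for 50% growth inhibition is given as GI50. TGI marks complete inhibition of growth.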
Columns and labels:
Assay in all cases: inhibition of tumour cell growth, NCI panel, 48 h
OVCAR-4 ovarian = test system: OVCAR-4 ovarian
SK-MEL-2 melanoma = test system: SK-MEL-2 melanoma
T-47D breast = test system: T-47D breast
M14 melanoma = test system: M14 melanoma
SF-268 CNS = test system: SF-268 CNS
MDA-MB-435 = test system: MDA-MB-435
HCT-15 colon = test system: HCT-15 colon
U251 CNS = test system: U251 CNS
OVCAR-8 ovarian = test system: OVCAR-8 ovarian
MDA-MB-231 breast = test system: MDA-MB-231 breast

| SMILES | GI50 (OVCAR-4 ovarian) | TGI (OVCAR-4 ovarian) | GI50 (SK-MEL-2 melanoma) | TGI (SK-MEL-2 melanoma) | GI50 (T-47D breast) [µM] | TGI (T-47D breast) [µM] | GI50 (M14 melanoma) | TGI (M14 melanoma) | GI50 (SF-268 CNS) | GI50 (MDA-MB-435) | TGI (MDA-MB-435) | GI50 (HCT-15 colon) [µM] | TGI (HCT-15 colon) | GI50 (U251 CNS) | GI50 (OVCAR-8 ovarian) | TGI (OVCAR-8 ovarian) | GI50 (MDA-MB-231 breast) | TGI (MDA-MB-231 breast) | TGI (SF-268 CNS) | TGI (U251 CNS) |
| --- | --- | --- | --- | --- | --- | --- | --- | --- | --- | --- | --- | --- | --- | --- | --- | --- | --- | --- | --- | --- |
| CCC(=C/[C@H](C)C/C=C/C(C)=C/[C@@H](C)C(=O)[C@@H](C)[C@H](O)[C@@H](C)CC)/C=C/[C@@H]1OC(=O)C=C[C@H]1C | < 0.01 µM | 1.5 µM | < 0.01 µM | < 0.01 µM | < 0.01 | 2.13 | < 0.01 µM | 0.0103 µM | < 0.01 µM | < 0.01 µM | < 0.01 µM | < 0.01 | 0.396 µM | < 0.01 µM | < 0.01 µM | 1.41 µM | < 0.01 µM | 1.77 µM | – | – |
| C=C1CCC2C3(C)COC(c4ccccc4)OC3CCC2(C)C1/C=C/C1=CCOC1=O (configuration not stated) | 3.63 µM | 16.3 µM | 4.81 µM | 15.9 µM | 19.9 | 69.4 | 6.4 µM | 36.7 µM | 5.22 µM | 2.84 µM | 13.8 µM | 2.41 | 11.5 µM | 2.87 µM | 4.11 µM | > 100 µM | 12.5 µM | 43 µM | 22.5 µM | 12.3 µM |
| CC(C)=CCC/C(C)=C/CC/C(C)=C/CSc1ccccc1C(=O)O | 31.5 µM | > 100 µM | 22.6 µM | 45.4 µM and 29.4 µM | 33.6 | > 91.3 | 25.6 µM | > 95 µM and 40.6 µM | 18.5 µM | 27.4 µM | 73.6 µM and 55.5 µM | 28.6 | > 100 µM and 32 µM | 23.4 µM | 23.9 µM | > 65.5 µM and 36.6 µM | 28.3 µM | 61.7 µM and 55.8 µM | 35.7 µM and 32.6 µM | 59.9 µM and 44.5 µM |
| O=C(c1ccccc1)C1OC1c1ccc([N+](=O)[O-])cc1 (configuration not stated) | 4.57 µM | > 100 µM | 5.88 µM | 34.9 µM | 3.9 | 71.1 | 2.98 µM | 12.9 µM | 8.73 µM | 2.95 µM | > 100 µM | 4.28 | > 100 µM | 9.86 µM | 4.71 µM | > 100 µM | 11 µM | 33.1 µM | > 100 µM | > 100 µM |
| Cc1nnc(-c2cccc(-c3ccc(C(=O)NCC4CC4)cc3)c2)o1 | > 25 µM | > 25 µM | > 25 µM | > 25 µM | > 16.9 | > 25 | > 25 µM | > 25 µM | > 25 µM | > 25 µM | > 25 µM | > 25 | > 25 µM | > 25 µM | > 25 µM | > 25 µM | > 25 µM | > 25 µM | > 25 µM | > 25 µM |
| O=c1[nH]c(=S)[nH]c2c1CN(CCCN1CCOCC1)CN2 | – | > 100 µM | – | 39.8 µM | – | > 100 | – | 59.6 µM | – | – | 69.6 µM | – | > 100 µM | – | – | 96.4 µM | – | 66.4 µM | 59.1 µM | > 100 µM |
| O=C(O)C1(C(=O)O)CCC1.[NH2-].[NH2-].[Pt+2] | 84 µM and 120 µM | 221 µM and > 250 µM | 161 µM and > 250 µM | 244 µM and > 250 µM | > 250 | > 250 | 109 µM and 184 µM | 248 µM and > 250 µM | 49.2 µM and 21.5 µM | 180 µM and > 250 µM | > 250 µM | > 250 | > 250 µM | 67.2 µM and 162 µM | 181 µM and > 193 µM | 232 µM and > 250 µM | 247 µM and > 250 µM | > 250 µM | 209 µM and 161 µM | 183 µM and > 250 µM |
| NCC1OC(n2cnc3c(N)ncnc32)CC1O (configuration not stated) | – | > 100 µM | – | > 100 µM | – | > 100 | – | > 100 µM | – | – | > 100 µM | – | > 100 µM | – | – | > 100 µM | – | > 100 µM | > 100 µM | > 100 µM |
| CC(=O)OC(C)(C)/C(C)=C/C(=O)O[C@H]1C(=O)O[C@@H]2C[C@H]3[C@H](C)C(=O)C(O[C@@H]4O[C@H](CO)[C@@H](O)[C@H](O)[C@H]4O)=C[C@]3(C)[C@H]3[C@@H](O)[C@H](O)[C@@]4(C(=O)O)OC[C@]32[C@@H]14 | > 100 µM | > 100 µM | > 100 µM | > 100 µM | > 100 | > 100 | > 100 µM | > 100 µM | > 100 µM | > 100 µM | > 100 µM | > 100 | > 100 µM | – | > 100 µM | > 100 µM | > 100 µM | > 100 µM | > 100 µM | > 100 µM |
| C#CCSc1cc(Cl)c(C)cc1S(=O)(=O)Nc1nc2ccccc2o1 | 51 µM | > 100 µM | 21.6 µM | 43.6 µM | 44.3 | > 100 | 32.1 µM | 67.9 µM | 59.8 µM | 27.8 µM | 62.9 µM | 31.5 | 90 µM | 38.5 µM | 40.4 µM | > 100 µM | 46.8 µM | > 100 µM | > 100 µM | > 100 µM |
| CS(=O)(=O)CCc1cccc(C(=O)c2cnn(-c3ccc(F)cc3)c2N)c1 | > 25 µM | > 25 µM | > 25 µM | > 25 µM | > 25 | > 25 | > 25 µM | > 25 µM | > 25 µM | > 25 µM | > 25 µM | > 25 | > 25 µM | > 25 µM | > 25 µM | > 25 µM | > 25 µM | > 25 µM | > 25 µM | > 25 µM |
| Nc1nnnn1CCO | – | > 100 µM | – | > 100 µM | – | > 100 | – | > 100 µM | – | – | > 100 µM | – | > 100 µM | – | – | > 100 µM | – | > 100 µM | > 100 µM | > 100 µM |
| COCc1cc(C(=O)Nc2cc([C@H]3CC[C@@H](OC(=O)NC(C)C)C3)[nH]n2)n(C)n1 | 4.89 µM | 77.2 µM | 10.6 µM | 27.2 µM | 9.71 | 89 | 12.2 µM | 40.5 µM | 12.1 µM | 16.1 µM | > 100 µM | 22.8 | > 100 µM | 8.94 µM | 10.9 µM | > 100 µM | 16.6 µM | 91.1 µM | 50.5 µM | > 100 µM |
